According to patent publication US20130344026A1, “Dimeric Smac Mimetics” (priority 2009, published 2013):
Read-outs that look alike come from different tables or passages of the source.

Test system: PANC-1 cells
Test: cell viability assay in PANC-1 cells (compound alone, + 100 ng/ml TNFa, + 300 ng/ml TRAIL)
Type: cell-based
Conditions: Tables 6-10
[1] = Homo sapiens, PANC-1, compound alone, read-out: IC50 (μM) in cell viability assay in PANC-1 cells: Compound alone
[2] = with 100 ng/ml TNFa, read-out: IC50 (μM) in cell viability assay in PANC-1 cells: Compound + 100 ng/ml TNFa
[3] = with 300 ng/ml TRAIL, read-out: IC50 (μM) in cell viability assay in PANC-1 cells: Compound + 300 ng/ml TRAIL

Structure (SMILES) | IC50 [1] [µM] | IC50 [2] [µM] | IC50 [3] [µM] | IC50 (compound alone, read-out: IC50 (μM) in cell viability assay in PANC-1 cells: Compound alone) [µM]
CCCC[C@@H](C)NC(=O)c1cc(C(=O)N[C@H]2C[C@@H](C(=O)N[C@@H]3CCCc4ccccc43)N(C(=O)[C@@H](NC(=O)[C@H](C)NC)C(C)(C)C)C2)cc(C(=O)N[C@H]2C[C@@H](C(=O)N[C@@H]3CCCc4ccccc43)N(C(=O)[C@@H](NC(=O)[C@H](C)NC)C(C)(C)C)C2)c1 [Compound 128] | > 1 | 0.01 | 0.014 | –
CCCC[C@@H](C)NC(=O)c1cc(C(=O)N[C@H]2C[C@@H](C(=O)N[C@@H]3CCCc4ccccc43)N(C(=O)[C@@H](NC(=O)[C@H](C)NC)C(C)(C)C)C2)cc(C(=O)N[C@H]2C[C@@H](C(=O)N[C@@H]3CCCc4ccccc43)N(C(=O)[C@@H](NC(=O)[C@H](C)NC)C(C)(C)C)C2)c1 [Compound 129] | – | 0.006 | 0.004 | > 1
CCCC[C@H](C)NC(=O)c1cc(C(=O)N[C@H]2C[C@@H](C(=O)N[C@@H]3CCCc4ccccc43)N(C(=O)[C@@H](NC(=O)[C@H](C)NC)C(C)(C)C)C2)cc(C(=O)N[C@H]2C[C@@H](C(=O)N[C@@H]3CCCc4ccccc43)N(C(=O)[C@@H](NC(=O)[C@H](C)NC)C(C)(C)C)C2)c1 [Compound 130] | > 1 | 0.018 | 0.019 | –
CN[C@@H](C)C(=O)N[C@H](C(=O)N[C@@H](CCNC(=O)CC[C@H](NC(=O)[C@@H](NC(=O)[C@H](C)NC)C(C)(C)C)C(=O)N[C@@H]1CCCc2ccccc21)C(=O)N[C@H](C)C(C)C)C(C)C [Compound 166] | > 1 | 0.994 | > 1 | –
CN[C@@H](C)C(=O)N[C@H](C(=O)N1C[C@@H](NC(=O)CC[C@@H](NC(=O)[C@H](NC(=O)[C@@H](C)NC)C(C)(C)C)C(=O)N[C@H]2CCCc3ccccc32)C[C@H]1C(=O)N[C@H](C)c1ccccc1)C(C)C [Compound 167] | > 1 | 0.06 | 0.1 | –
CN[C@@H](C)C(=O)N[C@H](C(=O)N1C[C@@H](NC(=O)CC[C@@H](NC(=O)[C@H](NC(=O)[C@@H](C)NC)C(C)C)C(=O)N[C@@H](C)C(C)C)C[C@H]1C(=O)N[C@H](C)c1ccccc1)C(C)C [Compound 168] | > 1 | > 1 | > 1 | –
CN[C@@H](C)C(=O)N[C@H](C(=O)N[C@@H](CCNC(=O)c1cccc(C(=O)N[C@H]2C[C@@H](C(=O)N[C@@H]3CCCc4ccccc43)N(C(=O)[C@@H](NC(=O)[C@H](C)NC)C(C)(C)C)C2)c1)C(=O)N[C@@H]1CCCc2ccccc21)C(C)(C)C [Compound 169] | > 1 | 0.01 | 0.028 | –
CN[C@@H](C)C(=O)N[C@H](C(=O)N[C@@H](CCNC(=O)c1cccc(C(=O)N[C@H]2C[C@@H](C(=O)N[C@@H]3CCCc4ccccc43)N(C(=O)[C@@H](NC(=O)[C@H](C)NC)C(C)(C)C)C2)c1)C(=O)N[C@@H]1CCCc2ccccc21)C(C)C [Compound 170] | > 1 | 0.015 | 0.015 | –
CN[C@@H](C)C(=O)N[C@H](C(=O)N[C@@H](CCNC(=O)CC[C@H](NC(=O)[C@@H](NC(=O)[C@H](C)NC)C(C)(C)C)C(=O)N[C@@H]1CCCc2ccccc21)C(=O)N[C@@H]1CCCc2ccccc21)C(C)(C)C [Compound 171] | > 1 | 0.044 | 0.063 | –
CN[C@@H](C)C(=O)N[C@@H](C)C(=O)N1C[C@@H](NC(=O)c2cccc(C(=O)N[C@H]3C[C@@H](C(=O)N[C@@H]4CCCc5ccccc54)N(C(=O)[C@@H](NC(=O)[C@H](C)NC)C(C)(C)C)C3)c2)C[C@H]1C(=O)N[C@H](C)c1ccccc1 [Compound 172] | > 1 | 0.025 | 0.028 | –
CN[C@@H](C)C(=O)N[C@H](C(=O)N1C[C@@H](NC(=O)c2cccc(C(=O)N[C@H]3C[C@@H](C(=O)N[C@H](C)c4ccccc4)N(C(=O)[C@@H](NC(=O)[C@H](CO)NC)C(C)(C)C)C3)c2)C[C@H]1C(=O)N[C@@H]1CCCc2ccccc21)C(C)(C)C [Compound 173] | > 1 | 0.01 | 0.019 | –
CN[C@@H](C)C(=O)N[C@H](C(=O)N[C@@H](CCNC(=O)c1cccc(C(=O)N[C@H]2C[C@@H](C(=O)N[C@@H]3CCCc4ccccc43)N(C(=O)[C@@H](NC(=O)[C@H](C)NC)C(C)(C)C)C2)c1)C(=O)N[C@H](C)c1ccccc1)C(C)(C)C [Compound 174] | > 1 | 0.0069 | 0.0107 | –
CN[C@@H](C)C(=O)N[C@H](C(=O)N[C@@H](CCNC(=O)c1cccc(C(=O)N[C@H]2C[C@@H](C(=O)N[C@@H]3CCCc4ccccc43)N(C(=O)[C@@H](NC(=O)[C@H](C)NC)C(C)(C)C)C2)c1)C(=O)N[C@H](C)c1ccccc1)C(C)C [Compound 175] | > 1 | 0.0163 | 0.0357 | –
CN[C@@H](C)C(=O)N[C@H](C(=O)N[C@@H](CCNC(=O)c1cccc(C(=O)N[C@H]2C[C@@H](C(=O)N[C@@H]3CCCc4ccccc43)N(C(=O)[C@@H](NC(=O)[C@H](C)NC)C(C)(C)C)C2)c1)C(=O)N[C@H](C)C(C)C)C(C)(C)C [Compound 176] | > 1 | 0.0199 | 0.0388 | –
CC[C@H](NC(=O)[C@H](C)NC)C(=O)N[C@@H](CCNC(=O)c1cccc(C(=O)N[C@H]2C[C@@H](C(=O)N[C@@H]3CCCc4ccccc43)N(C(=O)[C@@H](NC(=O)[C@H](C)NC)C(C)(C)C)C2)c1)C(=O)N[C@H](C)c1ccccc1 [Compound 177] | > 1 | 0.035 | 0.05 | –
CN[C@@H](C)C(=O)N[C@@H](C)C(=O)N[C@@H](CCNC(=O)c1cccc(C(=O)N[C@H]2C[C@@H](C(=O)N[C@@H]3CCCc4ccccc43)N(C(=O)[C@@H](NC(=O)[C@H](C)NC)C(C)(C)C)C2)c1)C(=O)N[C@H](C)c1ccccc1 [Compound 178] | > 1 | 0.054 | 0.089 | –
CN[C@@H](C)C(=O)N[C@H](C(=O)N[C@@H](CCNC(=O)c1cc(C(=O)N[C@H]2C[C@@H](C(=O)N[C@@H]3CCCc4ccccc43)N(C(=O)[C@@H](NC(=O)[C@H](C)NC)C(C)(C)C)C2)cc([N+](=O)[O-])c1)C(=O)N[C@H](C)C(C)C)C(C)C [Compound 179] | > 1 | 0.056 | 0.048 | –
CN[C@@H](C)C(=O)N[C@H](C(=O)N[C@@H](CCNC(=O)c1cc(N)cc(C(=O)N[C@H]2C[C@@H](C(=O)N[C@@H]3CCCc4ccccc43)N(C(=O)[C@@H](NC(=O)[C@H](C)NC)C(C)(C)C)C2)c1)C(=O)N[C@H](C)C(C)C)C(C)C [Compound 180] | > 1 | 0.124 | 0.201 | –
CN[C@@H](C)C(=O)N[C@H](C(=O)N[C@@H](CCNC(=O)c1cccc(C(=O)N[C@H]2C[C@@H](C(=O)N[C@@H]3CCCc4ccccc43)N(C(=O)[C@@H](NC(=O)[C@H](C)NC)C3CCCCC3)C2)c1)C(=O)N[C@H](C)C(C)C)C(C)C [Compound 181] | > 1 | 0.037 | 0.072 | –
CN[C@@H](C)C(=O)N[C@H](C(=O)N[C@@H](CCNC(=O)c1cc(C(=O)N[C@H]2C[C@@H](C(=O)N[C@@H]3CCCc4ccccc43)N(C(=O)[C@@H](NC(=O)[C@H](C)NC)C(C)(C)C)C2)cc([N+](=O)[O-])c1)C(=O)N[C@@H]1CCCc2ccccc21)C(C)C [Compound 182] | > 1 | 0.043 | 0.08 | –
CN[C@@H](C)C(=O)N[C@H](C(=O)N[C@@H](CCNC(=O)c1cc(N)cc(C(=O)N[C@H]2C[C@@H](C(=O)N[C@@H]3CCCc4ccccc43)N(C(=O)[C@@H](NC(=O)[C@H](C)NC)C(C)(C)C)C2)c1)C(=O)N[C@@H]1CCCc2ccccc21)C(C)C [Compound 183] | > 1 | 0.044 | 0.061 | –
CN[C@@H](C)C(=O)N[C@@H](CCCCNC(=O)c1cccc(C(=O)N[C@H]2C[C@@H](C(=O)N[C@@H]3CCCc4ccccc43)N(C(=O)[C@@H](NC(=O)[C@H](C)NC)C(C)(C)C)C2)c1)C(=O)N1CCC[C@H]1C(=O)NC(c1ccccc1)c1ccccc1 [Compound 184] | > 1 | 0.027 | 0.076 | –
CN[C@@H](C)C(=O)N[C@H](C(=O)N[C@@H](CCNC(=O)c1ccc2cc(C(=O)N[C@H]3C[C@@H](C(=O)N[C@@H]4CCCc5ccccc54)N(C(=O)[C@@H](NC(=O)[C@H](C)NC)C(C)(C)C)C3)ccc2c1)C(=O)N[C@H](C)C(C)C)C(C)C [Compound 185] | > 1 | 0.008 | 0.004 | –
CN[C@@H](C)C(=O)N[C@@H]1CCN(C(=O)c2ccc(C(=O)N[C@H]3C[C@@H](C(=O)N[C@@H]4CCCc5ccccc54)N(C(=O)[C@@H](NC(=O)[C@H](C)NC)C(C)(C)C)C3)cc2)C1 [Compound 186] | > 1 | 0.56 | 0.55 | –
CN[C@@H](C)C(=O)N[C@H]1CCN(C(=O)c2ccc(C(=O)N[C@H]3C[C@@H](C(=O)N[C@@H]4CCCc5ccccc54)N(C(=O)[C@@H](NC(=O)[C@H](C)NC)C(C)(C)C)C3)cc2)C1 [Compound 187] | > 1 | 0.62 | 0.6 | –
CN[C@@H](C)C(=O)N[C@H](C(=O)N1C[C@@H](NC(=O)c2ccc(C(=O)N3CCN(C(=O)[C@H](C)NC)CC3)cc2)C[C@H]1C(=O)N[C@@H]1CCCc2ccccc21)C(C)(C)C [Compound 188] | > 1 | 0.56 | 0.55 | –
CN[C@@H](C)C(=O)Nc1nc(CC(=O)NCCCC[C@H](NC(=O)[C@H](C)NC)C(=O)N2CCC[C@H]2C(=O)N[C@@H]2CCCc3ccccc32)cs1 [Compound 189] | > 1 | > 1 | > 1 | –
CN[C@@H](C)C(=O)Nc1nc(CC(=O)NCC[C@H](NC(=O)[C@@H](NC(=O)[C@H](C)NC)C(C)(C)C)C(=O)N[C@@H]2CCCc3ccccc32)cs1 [Compound 190] | > 1 | > 1 | > 1 | –
